The results in this text go back to PubChem BioAssay AID256 (DTP/NCI, 2004).

The subject of the assay is CD2F1 mice, L1210 leukemia ip, survival T/C. Briefly: NCI In Vivo Anticancer Drug Screen. Data for tumor model L1210 Leukemia (intraperitoneal) in CD2F1 (CDF1) mice. The conditions noted are these: higher = longer survival. The method, boiled down: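 Mice carrying a transplanted tumor received test compound or vehicle alone. The value is the measurement in the treated group divided by that in the vehicle-treated control group.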

The mark [1] stands for this setting: endpoint: mean survival time, dose: 12.5 mg/kg/injection, schedule: Q01DX009 (ip), vehicle: saline with Tween-80.
Setting [2] is: endpoint: mean survival time, dose: 25.0 mg/kg/injection, schedule: Q01DX009 (ip), vehicle: saline with Tween-80.
The mark [3] stands for this setting: endpoint: mean survival time, dose: 50.0 mg/kg/injection, schedule: Q01DX009 (ip), vehicle: saline with Tween-80.
The mark [4] stands for this setting: endpoint: mean survival time, dose: 100.0 mg/kg/injection, schedule: Q04DX003 (ip), vehicle: saline with Tween-80.
Setting [5] is: endpoint: mean survival time, dose: 200.0 mg/kg/injection, schedule: Q04DX003 (ip), vehicle: saline with Tween-80.
[6] abbreviates: endpoint: mean survival time, dose: 400.0 mg/kg/injection, schedule: Q04DX003 (ip), vehicle: saline with Tween-80.
The mark [7] stands for this setting: endpoint: mean survival time, dose: 100.0 mg/kg/injection, schedule: Q01DX001 (ip), vehicle: saline with Tween-80.
[8] abbreviates: endpoint: mean survival time, dose: 200.0 mg/kg/injection, schedule: Q01DX001 (ip), vehicle: saline with Tween-80.
The mark [9] stands for this setting: endpoint: mean survival time, dose: 400.0 mg/kg/injection, schedule: Q01DX001 (ip), vehicle: saline with Tween-80.
Where [10] appears, read: endpoint: mean survival time, dose: 100.0 mg/kg/injection, schedule: Q01DX009 (ip), vehicle: saline with Tween-80.
Where [11] appears, read: endpoint: mean survival time, dose: 200.0 mg/kg/injection, schedule: Q01DX009 (ip), vehicle: saline with Tween-80.
The mark [12] stands for this setting: endpoint: mean survival time, dose: 400.0 mg/kg/injection, schedule: Q01DX009 (ip), vehicle: saline with Tween-80.

“And” between values parts separate entries of the source, which are not always exact repeats. Equal entries are not always repeated. Toxic doses and inconclusive results are not listed.

For the compound `C=CC(CN1CC1)OC(C)=O` (stereo unspecified), the T/C is 107 % of control (endpoint: mean survival time, dose: 2.5 mg/kg/injection, schedule: Q03DX003 (ip), vehicle: saline); 100 % of control (endpoint: mean survival time, dose: 2.5 mg/kg/injection, schedule: Q04DX003 (ip), vehicle: saline); 159 % of control (endpoint: mean survival time, dose: 3.75 mg/kg/injection, schedule: Q01DX009 (ip), vehicle: saline); 172 % of control (endpoint: mean survival time, dose: 5.0 mg/kg/injection, schedule: Q01DX007 (ip), vehicle: saline); 160 % of control (endpoint: mean survival time, dose: 5.0 mg/kg/injection, schedule: Q01DX009 (ip), vehicle: saline); 121 % of control (endpoint: mean survival time, dose: 5.0 mg/kg/injection, schedule: Q03DX003 (ip), vehicle: saline). For the same compound, the T/C runs as follows: (endpoint: mean survival time, dose: 5.0 mg/kg/injection, schedule: Q04DX003 (ip), vehicle: saline) 111 % of control; (endpoint: mean survival time, dose: 7.5 mg/kg/injection, schedule: Q01DX009 (ip), vehicle: saline) 206 % of control and 249 % of control; (endpoint: mean survival time, dose: 10.0 mg/kg/injection, schedule: Q04DX003 (ip), vehicle: saline) 153 % of control; (endpoint: mean survival time, dose: 30.0 mg/kg/injection, schedule: Q01DX009 (ip), vehicle: saline) 91 % of control.

Consider `Cc1cc(Br)c2ccccc2c1N(CC(=O)O)S(=O)(=O)c1ccccc1`, for which the T/C under setting [1] was 103 % of control, the T/C under setting [2] was 103 % of control and the T/C under setting [3] was 94 % of control.

`[NH-]NC(=S)[S-].[NH-]NC(=S)[S-].[Ni]`: the T/C reads like this: under setting [4], 98 % of control; under setting [5], 102 % of control; under setting [6], 107 % of control.

On to `COC(=O)CCC(NC(=O)c1cccc(N(C)C=O)c1)C(=O)OC` (stereo unspecified), for which the T/C reads like this: under setting [7], 104 % of control; under setting [4], 100 % of control; under setting [8], 115 % of control; under setting [5], 100 % of control; under setting [9], 104 % of control; under setting [6], 96 % of control.

For `COC(=O)CNC(=O)C(F)(F)F`, the T/C was 104 % of control (endpoint: mean survival time, dose: 100.0 mg/kg/injection, schedule: Q01DX001 (ip), vehicle: saline); 103 % of control under setting [4]; 112 % of control (endpoint: mean survival time, dose: 200.0 mg/kg/injection, schedule: Q01DX001 (ip), vehicle: saline); 101 % of control under setting [5]; 104 % of control (endpoint: mean survival time, dose: 400.0 mg/kg/injection, schedule: Q01DX001 (ip), vehicle: saline); 103 % of control under setting [6].

Consider `SCc1nc2ccccc2[nH]1`, for which the T/C under setting [7] is 96 % of control and the T/C under setting [8] is 97 % of control.

In the case of `N#C/C(=C\c1cc(Cl)cc(Cl)c1O)C(/C(C#N)=C/c1cc(Cl)cc(Cl)c1O)c1ccc2c(c1)OCO2` (stereo unspecified), the T/C is 101 % of control under setting [10]; 101 % of control under setting [4]; 94 % of control under setting [11]; 97 % of control under setting [5]; 105 % of control under setting [12]; 103 % of control under setting [6].

`CC/C(=C(\c1ccccc1)c1ccc(OCCN(C)C)cc1)c1ccccc1`: the T/C runs as follows: (endpoint: median survival time, dose: 3.12 mg/kg/injection, schedule: Q01DX009 (ip), vehicle: suspension in saline) 101 % of control; (endpoint: median survival time, dose: 6.25 mg/kg/injection, schedule: Q01DX009 (ip), vehicle: suspension in saline) 101 % of control; (endpoint: median survival time, dose: 12.5 mg/kg/injection, schedule: Q01DX009 (ip), vehicle: suspension in saline) 100 % of control; (endpoint: median survival time, dose: 25.0 mg/kg/injection, schedule: Q01DX009 (ip), vehicle: saline with Tween-80) 100 % of control; (endpoint: median survival time, dose: 25.0 mg/kg/injection, schedule: Q01DX009 (ip), vehicle: suspension in saline) 97 % of control; (endpoint: median survival time, dose: 50.0 mg/kg/injection, schedule: Q01DX009 (ip), vehicle: saline with Tween-80) 107 % of control.

With `CC(=O)Nc1cc(Cl)ccc1C(=O)O`, the T/C under setting [3] was 96 % of control, the T/C under setting [10] was 98 % of control and the T/C under setting [11] was 100 % of control.

As to `CN1CC2(c3ccccc3)CN(C)CC(c3ccccc3)(C1)C2=O`, the T/C is 98 % of control (endpoint: mean survival time, dose: 6.25 mg/kg/injection, schedule: Q01DX009 (ip), vehicle: saline with Tween-80); 98 % of control (endpoint: mean survival time, dose: 6.25 mg/kg/injection, schedule: Q04DX003 (ip), vehicle: saline with Tween-80); 95 % of control under setting [1]; 98 % of control (endpoint: mean survival time, dose: 12.5 mg/kg/injection, schedule: Q04DX003 (ip), vehicle: saline with Tween-80); 103 % of control under setting [2]; 92 % of control (endpoint: mean survival time, dose: 25.0 mg/kg/injection, schedule: Q04DX003 (ip), vehicle: saline with Tween-80).

As for `C=CCCCCCCCCC(=O)NCc1nc2ccccc2[nH]1`, the T/C reads like this: under setting [10], 91 % of control; under setting [11], 96 % of control; under setting [12], 96 % of control.

Turning to `NC(=S)NNC(=O)c1ccccc1`, the T/C (endpoint: mean survival time, dose: 100.0 mg/kg/injection, schedule: Q04DX003 (ip), vehicle: Klucel (hydroxypropylcellulose) (HPC)) is 91 % of control and the T/C (endpoint: mean survival time, dose: 200.0 mg/kg/injection, schedule: Q04DX003 (ip), vehicle: Klucel (hydroxypropylcellulose) (HPC)) was 91 % of control.

Take `O=C(Nc1ccccc1CCl)Nc1ccccc1CCl`: the T/C is 111 % of control (endpoint: median survival time, dose: 50.0 mg/kg/injection, schedule: Q01DX005 (ip), vehicle: saline with Tween-80); 117 % of control (endpoint: median survival time, dose: 100.0 mg/kg/injection, schedule: Q01DX005 (ip), vehicle: saline with Tween-80); 115 % of control (endpoint: median survival time, dose: 200.0 mg/kg/injection, schedule: Q01DX005 (ip), vehicle: saline with Tween-80); 121 % of control (endpoint: median survival time, dose: 400.0 mg/kg/injection, schedule: Q01DX005 (ip), vehicle: saline with Tween-80).

As for `CCOC(=O)C(=NCc1ccc2c(c1)OCO2)NO`, the T/C was 96 % of control under setting [4], 100 % of control under setting [5] and 101 % of control under setting [6].

Turning to `CC(C)CCCC(C)C1CCC2C3C(=O)C4=CC(=O)CCC4(C)C3CCC12C` (stereo unspecified), the T/C under setting [7] was 94 % of control, the T/C under setting [8] was 96 % of control and the T/C under setting [9] is 90 % of control.

For the compound `CC(=O)Nc1cccc(N(CCOS(C)(=O)=O)CCOS(C)(=O)=O)c1`, the T/C (endpoint: mean survival time, dose: 0.5 mg/kg/injection, schedule: Q01DX009 (ip), vehicle: saline) is 122 % of control.

With `COc1ccc(Cl)cc1N`, the T/C is, setting by setting: under setting [4], 94 % of control; under setting [5], 92 % of control; under setting [6], 96 % of control.

As for `O=C(OCC1OC(OC2(COC(=O)c3ccccc3)OC(COC(=O)c3ccccc3)C(OC(=O)c3ccccc3)C2OC(=O)c2ccccc2)C(OC(=O)c2ccccc2)C(OC(=O)c2ccccc2)C1OC(=O)c1ccccc1)c1ccccc1` (stereo unspecified), the T/C reads like this: under setting [7], 100 % of control; under setting [8], 100 % of control; under setting [9], 102 % of control.

Regarding `CS(=O)(=O)OCCn1c(=O)n(CCOS(C)(=O)=O)c(=O)n(CCOS(C)(=O)=O)c1=O`, the T/C runs as follows: under setting [4], 102 % of control; under setting [5], 98 % of control; under setting [6], 93 % of control.

With `CCOC(=O)CC(=O)c1c(C)cc(C)cc1C`, the T/C reads like this: under setting [10], 89 % of control; under setting [11], 96 % of control; under setting [12], 107 % of control.

Turning to `CC1CN(c2ccccc2)NC1=O` (stereo unspecified), the T/C is, setting by setting: (endpoint: mean survival time, dose: 100.0 mg/kg/injection, schedule: Q01DX009 (ip), vehicle: saline) 104 % of control; (endpoint: mean survival time, dose: 200.0 mg/kg/injection, schedule: Q01DX009 (ip), vehicle: saline) 105 % of control; (endpoint: mean survival time, dose: 400.0 mg/kg/injection, schedule: Q01DX009 (ip), vehicle: saline) 102 % of control.

In the case of `COc1ccccc1C(=Nc1ccccc1)N(O)c1ccccc1`, the T/C runs as follows: (endpoint: mean survival time, dose: 2.5 mg/kg/injection, schedule: Q01DX001 (ip), vehicle: saline with Tween-80) 114 % of control; (endpoint: mean survival time, dose: 2.5 mg/kg/injection, schedule: Q04DX003 (ip), vehicle: saline with Tween-80) 101 % of control; (endpoint: mean survival time, dose: 5.0 mg/kg/injection, schedule: Q01DX001 (ip), vehicle: saline with Tween-80) 112 % of control; (endpoint: mean survival time, dose: 5.0 mg/kg/injection, schedule: Q04DX003 (ip), vehicle: saline with Tween-80) 101 % of control; (endpoint: mean survival time, dose: 10.0 mg/kg/injection, schedule: Q01DX001 (ip), vehicle: saline with Tween-80) 114 % of control; (endpoint: mean survival time, dose: 10.0 mg/kg/injection, schedule: Q04DX003 (ip), vehicle: saline with Tween-80) 98 % of control.

With `O=C1c2ccccc2C(=O)N1CNc1cccc(NCN2C(=O)c3ccccc3C2=O)c1`, the T/C reads like this: (endpoint: mean survival time, dose: 100.0 mg/kg/injection, schedule: Q01DX009 (ip), vehicle: acetone) 98 % of control; (endpoint: mean survival time, dose: 200.0 mg/kg/injection, schedule: Q01DX009 (ip), vehicle: acetone) 103 % of control; (endpoint: mean survival time, dose: 400.0 mg/kg/injection, schedule: Q01DX009 (ip), vehicle: acetone) 93 % of control.
